Test [1] deals with GRA (B. subtilis xpt-pbuX guanine riboswitch C74U aptamer domain) (RNA, riboswitch) GGACAUAUAAUCGCGUGGAUAUGGCACGCAAGUUUCUACCGGGCACCGUAAAUGUCCGAUUAUGUCC
As to the kind of experiment: X-ray crystallography. The following applies: cocrystal structure, 1.6 Å.

Test [2] shares this test system. Briefly: 2-aminopurine displacement fluorescence competition. As to conditions: 100 mM KCl, 10 mM MgCl2, 50 mM Tris-HCl pH 8.3.
Test [3] has the same test system. Briefly: 2-aminopurine fluorescence titration. The following applies: 100 mM KCl, 10 mM MgCl2; 50 mM Tris-HCl pH 8.3; RNA titrated into 200 nM 2-aminopurine.
The mark [4] stands for this setting: 2-aminopurine displaced (KL 140 nM), 243 nM RNA.

This note sets out measurements from article PMC3119931 (2011).

Structures are written as SMILES.

In the case of `CNc1ncnc2[nH]cnc12`, the binding result in test [1] is given as “yes”.
As to `Cc1nc(N)nc(N)n1`, in test [2] (setting [4]), the KD (commonly a measure of binding affinity in units of concentration) turned out to be 110 ± 30 µM.
For `Nc1nc(N)nc(Cl)n1`, the binding result in test [2] (2-aminopurine displaced, highest concentration tested 120 μM) is “no”.
With `Nc1ncc2[nH]cnc2n1`, the KL in test [3] came to 140 nM.
For `Nc1cc(N)nc(N)n1`, the binding constant in test [2] (setting [4]) turned out to be 0.014 ± 0.001 mM.
Consider `Nc1nc2[nH]nc(N)n2n1`, for which the KD in test [2] (setting [4]) was determined as 370 ± 40 µM.
For `Nc1ncnc(N)n1`, in test [2] (setting [4]), the KD amounted to 80 ± 20 µM.
